Results from the OligoGym collection.
HELM strings list units from the 5' end as sugar, base in round brackets, then linkage (d deoxyribose, r ribose, m 2'-O-methyl, p phosphodiester). Strings are as the collection lists them; they lack the last nucleoside at the 3' end of the tested compound. [moe] = 2'-O-(2-methoxyethyl) (MOE); [sp] = phosphorothioate linkage; [m5C] = 5-methylcytosine

target: APP; experiment: mouse, dose not given; conditions: ASO

First: RNA1{[moe](G)[sp].[moe]([m5C])p.[moe](T)p.[moe](A)p.[moe]([m5C])[sp].d(A)[sp].d(A)[sp].d(T)[sp].d(T)[sp].d(A)[sp].d(T)[sp].d([m5C])[sp].d([m5C])[sp].d(A)[sp].d([m5C])[sp].[moe](A)p.[moe](T)p.[moe](G)[sp].[moe](G)}$$$$ (last 3' nucleoside missing)
Second: RNA1{[moe](G)[sp].[moe]([m5C])p.[moe](T)p.[moe](G)p.[moe](T)[sp].d(T)[sp].d(G)[sp].d(T)[sp].d(A)[sp].d(G)[sp].d(G)[sp].d(A)[sp].d(A)[sp].d([m5C])[sp].d(T)[sp].[moe]([m5C])p.[moe](G)p.[moe](A)[sp].[moe](A)}$$$$ (last 3' nucleoside missing)
The 3 h FOB score of the first is lower: 0 score 0-7 for the first, 4 score 0-7 for the second.

Compared with “RNA1{[moe](G)[sp].[moe]([m5C])p.[moe](T)p.[moe](T)p.[moe](A)[sp].d([m5C])[sp].d(A)[sp].d(T)[sp].d([m5C])[sp].d(A)[sp].d(T)[sp].d(T)[sp].d(T)[sp].d(T)[sp].d([m5C])[sp].[moe](T)p.[moe](T)p.[moe](G)[sp].[moe]([m5C])}$$$$ (last 3' nucleoside missing)”, “RNA1{[moe](G)[sp].[moe]([m5C])p.[moe](T)p.[moe](T)p.[moe]([m5C])[sp].d(A)[sp].d(T)[sp].d(T)[sp].d(A)[sp].d([m5C])[sp].d([m5C])[sp].d(A)[sp].d([m5C])[sp].d(T)[sp].d(T)[sp].[moe]([m5C])p.[moe](T)p.[moe](G)[sp].[moe](A)}$$$$ (last 3' nucleoside missing)” is higher in 3 h FOB score: 0 score 0-7 for the first, 1 score 0-7 for the second.

Compared with “RNA1{[moe](G)[sp].[moe]([m5C])p.[moe](T)p.[moe]([m5C])p.[moe](A)[sp].d(G)[sp].d(A)[sp].d(G)[sp].d([m5C])[sp].d([m5C])[sp].d(A)[sp].d(G)[sp].d(G)[sp].d([m5C])[sp].d(G)[sp].[moe](A)p.[moe](G)p.[moe](T)[sp].[moe]([m5C])}$$$$ (last 3' nucleoside missing)”, “RNA1{[moe](G)[sp].[moe]([m5C])p.[moe](T)p.[moe]([m5C])p.[moe](A)[sp].d(T)[sp].d(T)[sp].d(T)[sp].d(T)[sp].d(T)[sp].d(T)[sp].d(T)[sp].d(T)[sp].d(A)[sp].d([m5C])[sp].[moe](A)p.[moe](T)p.[moe](G)[sp].[moe](A)}$$$$ (last 3' nucleoside missing)” is lower in 3 h FOB score: 3 score 0-7 for the first, 0 score 0-7 for the second.

Compared with “RNA1{[moe](G)[sp].[moe]([m5C])p.[moe]([m5C])p.[moe](A)p.[moe](A)[sp].d([m5C])[sp].d(T)[sp].d(T)[sp].d(A)[sp].d(T)[sp].d(T)[sp].d([m5C])[sp].d(T)[sp].d([m5C])[sp].d(A)[sp].[moe](A)p.[moe](G)p.[moe](G)[sp].[moe](G)}$$$$ (last 3' nucleoside missing)”, “RNA1{[moe](G)[sp].[moe]([m5C])p.[moe]([m5C])p.[moe](A)p.[moe](T)[sp].d(A)[sp].d(T)[sp].d(T)[sp].d(G)[sp].d(T)[sp].d([m5C])[sp].d(A)[sp].d(T)[sp].d(T)[sp].d(T)[sp].[moe](T)p.[moe](A)p.[moe]([m5C])[sp].[moe](A)}$$$$ (last 3' nucleoside missing)” is higher in 3 h FOB score: 1 score 0-7 for the first, 1.33 score 0-7 for the second.

First: RNA1{[moe](G)[sp].[moe]([m5C])p.[moe]([m5C])p.[moe](T)p.[moe](T)[sp].d(A)[sp].d(T)[sp].d(T)[sp].d(A)[sp].d(T)[sp].d([m5C])[sp].d(T)[sp].d([m5C])[sp].d(A)[sp].d(A)[sp].[moe](A)p.[moe]([m5C])p.[moe](T)[sp].[moe]([m5C])}$$$$ (last 3' nucleoside missing)
Second: RNA1{[moe](T)[sp].[moe](A)p.[moe](G)p.[moe](G)p.[moe](A)[sp].d(A)[sp].d([m5C])[sp].d(T)[sp].d([m5C])[sp].d(G)[sp].d(A)[sp].d(A)[sp].d([m5C])[sp].d([m5C])[sp].d(A)[sp].[moe]([m5C])p.[moe]([m5C])p.[moe](T)[sp].[moe]([m5C])}$$$$ (last 3' nucleoside missing)
The 3 h FOB score of the first is lower: 0 score 0-7 for the first, 0.5 score 0-7 for the second.

Compared with “RNA1{[moe](T)[sp].[moe](A)p.[moe](G)p.[moe](T)p.[moe](A)[sp].d([m5C])[sp].d(A)[sp].d(T)[sp].d(T)[sp].d([m5C])[sp].d([m5C])[sp].d(A)[sp].d([m5C])[sp].d(T)[sp].d(T)[sp].[moe](T)p.[moe](G)p.[moe](T)[sp].[moe](T)}$$$$ (last 3' nucleoside missing)”, “RNA1{[moe](T)[sp].[moe](A)p.[moe](T)p.[moe](G)p.[moe](A)[sp].d([m5C])[sp].d(A)[sp].d(A)[sp].d([m5C])[sp].d(A)[sp].d([m5C])[sp].d([m5C])[sp].d(G)[sp].d([m5C])[sp].d([m5C])[sp].[moe]([m5C])p.[moe](A)p.[moe]([m5C])[sp].[moe]([m5C])}$$$$ (last 3' nucleoside missing)” is higher in 3 h FOB score: 0 score 0-7 for the first, 4 score 0-7 for the second.

Compared with “RNA1{[moe](T)[sp].[moe](A)p.[moe]([m5C])p.[moe](A)p.[moe](T)[sp].d([m5C])[sp].d(A)[sp].d(T)[sp].d(T)[sp].d(T)[sp].d(T)[sp].d([m5C])[sp].d(T)[sp].d(T)[sp].d(G)[sp].[moe]([m5C])p.[moe](A)p.[moe](G)[sp].[moe](T)}$$$$ (last 3' nucleoside missing)”, “RNA1{[moe](T)[sp].[moe](G)[sp].[moe](T)[sp].[moe]([m5C])[sp].[moe](A)[sp].d([m5C])[sp].d(T)[sp].d(T)[sp].d(T)[sp].d([m5C])[sp].d(T)[sp].d(T)[sp].d([m5C])[sp].d(A)[sp].d(G)[sp].[moe]([m5C])[sp].[moe]([m5C])[sp].[moe](A)[sp].[moe](G)}$$$$ (last 3' nucleoside missing)” is higher in 3 h FOB score: 2.75 score 0-7 for the first, 6 score 0-7 for the second.

First: RNA1{[moe](T)[sp].[moe](G)p.[moe](A)p.[moe](T)p.[moe](G)[sp].d([m5C])[sp].d(A)[sp].d([m5C])[sp].d(A)[sp].d(T)[sp].d(A)[sp].d(T)[sp].d([m5C])[sp].d([m5C])[sp].d(A)[sp].[moe](G)p.[moe](G)p.[moe]([m5C])[sp].[moe](T)}$$$$ (last 3' nucleoside missing)
Second: RNA1{[moe](T)[sp].[moe](G)p.[moe](G)p.[moe](G)p.[moe]([m5C])[sp].d(A)[sp].d(T)[sp].d([m5C])[sp].d(A)[sp].d(T)[sp].d(T)[sp].d(T)[sp].d(T)[sp].d(T)[sp].d(G)[sp].[moe]([m5C])p.[moe](T)p.[moe]([m5C])[sp].[moe]([m5C])}$$$$ (last 3' nucleoside missing)
The 3 h FOB score of the first is higher: 0.25 score 0-7 for the first, 0 score 0-7 for the second.

First: RNA1{[moe](T)[sp].[moe](G)p.[moe](G)p.[moe](T)p.[moe](A)[sp].d([m5C])[sp].d(T)[sp].d(A)[sp].d(T)[sp].d(T)[sp].d(T)[sp].d([m5C])[sp].d(T)[sp].d(A)[sp].d(A)[sp].[moe](G)p.[moe](G)p.[moe](A)[sp].[moe](A)}$$$$ (last 3' nucleoside missing)
Second: RNA1{[moe](T)[sp].[moe](G)p.[moe](G)p.[moe](T)p.[moe](T)[sp].d(T)[sp].d(A)[sp].d([m5C])[sp].d([m5C])[sp].d(T)[sp].d(T)[sp].d(T)[sp].d(A)[sp].d(A)[sp].d([m5C])[sp].[moe](A)p.[moe](T)p.[moe](T)[sp].[moe]([m5C])}$$$$ (last 3' nucleoside missing)
The 3 h FOB score of the first is higher: 0.33 score 0-7 for the first, 0 score 0-7 for the second.

“RNA1{[moe](T)[sp].[moe](G)p.[moe](G)p.[moe](T)p.[moe]([m5C])[sp].d(A)[sp].d(T)[sp].d(T)[sp].d(A)[sp].d([m5C])[sp].d(T)[sp].d(A)[sp].d([m5C])[sp].d(T)[sp].d(T)[sp].[moe](A)p.[moe]([m5C])p.[moe](A)[sp].[moe]([m5C])}$$$$ (last 3' nucleoside missing)” and “RNA1{[moe](T)[sp].[moe](G)p.[moe](G)p.[moe](T)p.[moe]([m5C])[sp].d(A)[sp].d(T)[sp].d([m5C])[sp].d(A)[sp].d(A)[sp].d([m5C])[sp].d(T)[sp].d(T)[sp].d(T)[sp].d(T)[sp].[moe](T)p.[moe](A)p.[moe](G)[sp].[moe](T)}$$$$ (last 3' nucleoside missing)” are the same in 3 h FOB score: 0 score 0-7 for the first, 0 score 0-7 for the second.

First: RNA1{[moe](T)[sp].[moe](G)p.[moe](G)p.[moe](T)p.[moe]([m5C])[sp].d(T)[sp].d(A)[sp].d(T)[sp].d(A)[sp].d(T)[sp].d(A)[sp].d(T)[sp].d(T)[sp].d(T)[sp].d([m5C])[sp].[moe](A)p.[moe](G)p.[moe](G)[sp].[moe]([m5C])}$$$$ (last 3' nucleoside missing)
Second: RNA1{[moe](T)[sp].[moe](G)p.[moe](G)p.[moe]([m5C])p.[moe](A)[sp].d(A)[sp].d(A)[sp].d([m5C])[sp].d(T)[sp].d([m5C])[sp].d(T)[sp].d([m5C])[sp].d(T)[sp].d(T)[sp].d(A)[sp].[moe](G)p.[moe](G)p.[moe](T)[sp].[moe](T)}$$$$ (last 3' nucleoside missing)
The 3 h FOB score of the first is lower: 0 score 0-7 for the first, 1.33 score 0-7 for the second.

First: RNA1{[moe](T)[sp].[moe](G)p.[moe](G)p.[moe]([m5C])p.[moe](T)[sp].d(T)[sp].d(A)[sp].d(T)[sp].d(G)[sp].d(A)[sp].d(T)[sp].d([m5C])[sp].d(T)[sp].d(A)[sp].d(T)[sp].[moe](A)p.[moe]([m5C])p.[moe](A)[sp].[moe]([m5C])}$$$$ (last 3' nucleoside missing)
Second: RNA1{[moe](T)[sp].[moe](G)p.[moe](T)p.[moe](G)p.[moe](A)[sp].d(T)[sp].d(T)[sp].d(T)[sp].d([m5C])[sp].d(A)[sp].d([m5C])[sp].d(T)[sp].d(A)[sp].d(A)[sp].d([m5C])[sp].[moe]([m5C])p.[moe](G)p.[moe](G)[sp].[moe]([m5C])}$$$$ (last 3' nucleoside missing)
The 3 h FOB score of the first is lower: 1 score 0-7 for the first, 1.25 score 0-7 for the second.

“RNA1{[moe](T)[sp].[moe](G)p.[moe](T)p.[moe](G)p.[moe]([m5C])[sp].d(A)[sp].d([m5C])[sp].d(A)[sp].d(T)[sp].d(A)[sp].d(A)[sp].d(A)[sp].d(A)[sp].d([m5C])[sp].d(A)[sp].[moe](G)p.[moe](G)p.[moe]([m5C])[sp].[moe](A)}$$$$ (last 3' nucleoside missing)” and “RNA1{[moe](T)[sp].[moe](G)p.[moe](T)p.[moe](T)p.[moe]([m5C])[sp].d([m5C])[sp].d(A)[sp].d(A)[sp].d(A)[sp].d(G)[sp].d(A)[sp].d(T)[sp].d(T)[sp].d([m5C])[sp].d([m5C])[sp].[moe](A)p.[moe]([m5C])p.[moe](T)[sp].[moe](T)}$$$$ (last 3' nucleoside missing)” are the same in 3 h FOB score: 1 score 0-7 for the first, 1 score 0-7 for the second.
